Read-outs that look alike come from different tables or passages of the source.
How the values were obtained:
[1] = free state; cited from earlier work
[2] = system: STZ-induced diabetic rats; conditions: for blood glucose level: 75 mg/kgbw intraperitoneal once every five days
Experimental: Healthy adult male albino Rattus norvegicus Wistar rats, weighing 170-200 g were procured from Sri Raghavendra Enterprises, Bangalore, Karnataka, India. Studies were conducted in accordance with the guidance for the care and standard experimental animal ethical protocols. Animals were acclimated for a week, maintained at room temperature of 25±2° C. with 12-h dark-light cycle and given tap water and a standard rodent pellet diet ad libitum.
Six (6) groups with six rats each were used. Group I consisted of control animals and diabetes was induced in 12 hour fasted rats in Groups II-VI by a single intraperitoneal 60 mg/kgbw dose of STZ dissolved in freshly prepared 0.1 mol/L citrate buffer (pH 4.5). Blood samples obtained by sequential snipping of the tail and blood glucose levels measured using an ACCU-CHECK® glucometer on a daily basis. […] Group II became the positive control.
The dose-response of the drug was monitored for a period of 30 and 90 days using differential grades of drug at doses of 1, 10, 25, 50, 75, and 100 mg/kgbw administered once every five days. On the fifth day after the first administration, blood was collected and blood glucose levels measured using an ACCU-CHECK® glucometer. Subsequently each group was given its respective second and subsequent doses through intraperitoneal injection.
(§1) The following values were determined spectrophotometrically: (a) daily blood glucose levels (via Accu-check glucometer kit, Roche Diagnostics India); (b) hepatic glycogen (see Seifter et al., (1950) Arch Biochem 25(1):191-200); (c) glycosylated hemoglobin (see Sudhakar and Pattabiraman (1981) Clin Chim Acta 109:267-274); (d) blood urea nitrogen (BUN); (e) serum creatinine (see Hare (1950) Proc Soc Exp Biol Med 74:148-151); and (f) hepatic enzymes (AST, ALT) (see Reitman and Frankel (1957) Am J Clin Pathol 28:56-63).
(§2) Biostatistical analysis was conducted using SPSS 20.0 software. Analysis of variance (one-way ANOVA) was performed with the Tukey HSD post hoc test.

[3] = system: STZ induced diabetic mice
Experimental: Streptozotocin (STZ; 2-deoxy-2-(3-methyl-3-nitrosoureido)-D-glucopyranose), a diabetogenic agent having the ability to induce pancreatic β-cell toxicity, is one of the chemicals used worldwide to induce diabetes in a simple and convenient method.
Adult albino mice, Mus musculus, three months old, weighing 30±5 g were procured from Sri Raghavendra Enterprises, Bangalore and acclimatized to laboratory conditions (12:12 hr dark/light, 25±2° C.) for one week. During acclimatization and thereafter, mice were maintained on standard rodent pellet and tap water ad libitum in accordance with ethical guidelines for animal care and experimentation.
Six (6) groups with six mice each were used. […] Group II became the positive control. […] On the fifth day after the first administration, blood was collected by tail pricking and blood glucose levels measured using an ACCU-CHECK® glucometer on a daily basis. Subsequently each group was given its respective second and subsequent doses through intraperitoneal injection.

[4] = system: STZ-induced diabetic rats; conditions: for blood glucose levels: 100 mg/kgbw oral once every five days
Experimental: as §1, §2
The dose-response of the drug was monitored for a period of 30 and 90 days using drug doses of 100 and 200 mg/kgbw administered once every five days. Spectrophotometric measurements and statistical analysis were obtained as in Example 2.

| Molecule | toxicity [1] | blood glucose level ([2]; after 30 days) [mg/dL] | blood glucose level ([2]; three months (90 days), P<0.05) [mg/dL] | insulin levels ([2]; 75 mg/kgbw intraperitoneal, compared to the control (FIG. 24)) | glycogen level ([2]; 75 mg/kgbw intraperitoneal, day 30, hepatic glycogen) [mg/g tissue] | glycogen level ([2]; 75 mg/kgbw intraperitoneal, day 90, hepatic glycogen) [mg/g tissue] | hyperglycemic condition ([3]; 250 mg/kgbw intraperitoneal, 30 days, data not shown) | blood glucose level ([3]; 250 mg/kgbw intraperitoneal, multiple doses once every 5 days) | blood glucose level ([3]; the other doses (50, 150, 300 mg/kgbw) intraperitoneal) | blood glucose levels ([4]; day 30) [mg/dL] | blood glucose levels ([4]; day 90) [mg/dL] | glycogen levels ([4]; oral (FIG. 18)) | insulin levels ([4]; oral, compared to the control (FIG. 25)) |
| --- | --- | --- | --- | --- | --- | --- | --- | --- | --- | --- | --- | --- | --- |
| O=C(O)c1cccc(C(=O)O)n1 [dipicolinic acid, Pyridine-2,6-dicarboxylic acid] | nontoxic | – | – | – | – | – | – | – | – | – | – | – | – |
| (Diaqua)(2,6-pyridine diacetyl-carboxylato)oxovanadium(IV) [Complex 1] | – | 135 | 118.7 | significantly reducing insulin levels as compared to the control | 2.01 | 2.00 | reduced the hyperglycemic condition in a steady state for a period of 30 days | stable and sustainable blood glucose level throughout the study | irregularity in maintaining the reduced levels | 108 | 102 | significant effect on increasing the glycogen levels | significant reduction in insulin levels as compared to the control |

— patent US10953042B2, “Vanadium insulin-mimetics, methods of preparation, and methods for treatment of diabetes” (The University of Trinidad and Tobago, priority 2017, dated 2021)
